Results: patent publication US20040133938A1, “Use of lipoic acid in plant culture media” (priority 2002, published 2004)

System: A3244 soybean seed axis explants
Experiment: Soybean Agrobacterium transformation, lipoic acid in co-culture media
Format: cell-based
Method: Dry A3244 soybean seeds were germinated by soaking in sterile distilled water (SDW) for three minutes, drained and allowed to slowly imbibe for 2 hours at which time Bean Germination Media (BGM) was added. At approximately 12 hours, seed axis explants were isolated by removing seed coats and cotyledons. Inoculation occurred 14 hours after the addition of SDW.
Explants were placed into sterile Plantcons™ with 20 mL of pMON15737/ABI (FIG. 3) and resuspended to an optical density A660 of approximately 0.3 in 1/10 Gamborg's B5 media (Gamborg et al., Exp. Cell Res., 50:151-158, 1968) containing 3% glucose, 1.68 mg/L BAP, 3.9 g/L MES, […] acetosyringone, 1 mM galactronic acid, and 0.25 mg/L GA3. Each Plantcon™ was sonicated for 20 seconds in a L&R Quantrex S140 sonicator that contained SDW+0.1% Triton X100 in the bath. Plantcons™ were held in place at approximately 2.5 cm below the surface of the bath liquid. Following sonication, explants were inoculated for an additional hour while shaking gently on an orbital shaker at ˜90 RPM. After inoculation, the Agrobacterium was removed. […] Co-culture media consisted of 1/10 Gamborg's B5 media containing 5% glucose, 1.68 mg/L BAP, 3.9 g/L, […] acetosyringone, 1 mM galactronic acid and 0.25 mg/L GA3. Explants were incubated at 23° C. in the dark for 3 days.
Lipoic acid was dissolved in either ethanol or potassium hydroxide to make 100 mg/mL stock. […]
Following co-culture, explants were transferred to solid Woody Plant Media (WPM) (McCown & Lloyd, Proc. International Plant Propagation Soc., 30:421, 1981) containing 2% sucrose, 200 mg/L carbenicillin, 100 mg/L Timetin (ticarcillin+clavulanic acid), +/−100 mg/L cefotaxime, 60 mg/L Benomyl, and 75 μM glyphosate. All explants were placed at 28° C., 16-hour light/8-hour dark photoperiod. A second transfer to the same media was made after two weeks.
Shoots were cut 5-8 weeks post-inoculation and rooted on Bean Rooting Media (BRM) containing 25 μM glyphosate and 100 mg/L Timetin.

[1] = 5 uM LA, KOH, 248 explants, Table 12
[2] = 5 uM LA, 244 explants, Table 12
[3] = 10 uM LA, KOH, 240 explants, Table 12
[4] = 10 uM LA, 247 explants, Table 12
[5] = 50 uM LA, KOH, 246 explants, Table 12
[6] = 50 uM LA, 242 explants, Table 12
[7] = 100 uM LA, KOH, 246 explants, Table 12
[8] = 100 uM LA, 396 explants, Table 12
[9] = 250 uM LA, KOH, 505 explants, Table 11
[10] = 250 uM LA, 246 explants, Table 12
[11] = 250 uM LA, 486 explants, Table 11
[12] = 500 uM LA*, 171 explants, Table 12
[13] = 500 uM LA, KOH, 462 explants, Table 11
[14] = 500 uM LA, 531 explants, Table 11
[15] = 750 uM LA, KOH, 454 explants, Table 11
[16] = 750 uM LA, 535 explants, Table 11
[17] = 1000 uM LA, KOH, 471 explants, Table 11
[18] = 1000 uM LA, 530 explants, Table 11
[19] = 1500 uM LA, KOH, 498 explants, Table 11
[20] = 1500 uM LA, 538 explants, Table 11

## O=C(O)CCCCC1CCSS1 (centres unmarked) [lipoic acid, 1,2-dithiolane-3-pentanoic acid]
[1]
  Shooting Frequency: 5%
  Total Rooted Plants: 2
  Total Shoots: 13
  Transformation Efficiency: 0.8%
[2]
  Shooting Frequency: 7%
  Total Rooted Plants: 3
  Total Shoots: 18
  Transformation Efficiency: 1.2%
[3]
  Shooting Frequency: 5%
  Total Rooted Plants: 0
  Total Shoots: 13
  Transformation Efficiency: 0.0%
[4]
  Shooting Frequency: 6%
  Total Rooted Plants: 0
  Total Shoots: 14
  Transformation Efficiency: 0.0%
[5]
  Shooting Frequency: 7%
  Total Rooted Plants: 1
  Total Shoots: 17
  Transformation Efficiency: 0.4%
[6]
  Shooting Frequency: 9%
  Total Rooted Plants: 1
  Total Shoots: 22
  Transformation Efficiency: 0.4%
[7]
  Shooting Frequency: 7%
  Total Rooted Plants: 2
  Total Shoots: 18
  Transformation Efficiency: 0.8%
[8]
  Shooting Frequency: 10%
  Total Rooted Plants: 3
  Total Shoots: 39
  Transformation Efficiency: 0.8%
[9]
  Rooted Plants: 13
  Shooting Frequency: 12%
  Total Shoots: 63
  Transformation Efficiency: 2.6%
[10]
  Shooting Frequency: 13%
  Total Rooted Plants: 9
  Total Shoots: 32
  Transformation Efficiency: 3.7%
[11]
  Rooted Plants: 7
  Shooting Frequency: 14%
  Total Shoots: 69
  Transformation Efficiency: 1.4%
[12]
  Shooting Frequency: 11%
  Total Rooted Plants: 5
  Total Shoots: 19
  Transformation Efficiency: 2.9%
[13]
  Rooted Plants: 7
  Shooting Frequency: 10%
  Total Shoots: 44
  Transformation Efficiency: 1.5%
[14]
  Rooted Plants: 9
  Shooting Frequency: 12%
  Total Shoots: 64
  Transformation Efficiency: 1.7%
[15]
  Rooted Plants: 7
  Shooting Frequency: 12%
  Total Shoots: 56
  Transformation Efficiency: 1.5%
[16]
  Rooted Plants: 9
  Shooting Frequency: 12%
  Total Shoots: 62
  Transformation Efficiency: 1.7%
[17]
  Rooted Plants: 6
  Shooting Frequency: 8%
  Total Shoots: 40
  Transformation Efficiency: 1.3%
[18]
  Rooted Plants: 12
  Shooting Frequency: 10%
  Total Shoots: 52
  Transformation Efficiency: 2.3%
[19]
  Rooted Plants: 10
  Shooting Frequency: 11%
  Total Shoots: 57
  Transformation Efficiency: 2.0%
[20]
  Rooted Plants: 13
  Shooting Frequency: 10%
  Total Shoots: 53
  Transformation Efficiency: 2.4%
Lipoic acid concentration of 250 μM
  increase of transformation frequency: about ninefold
Lipoic acid concentrations of 250 μM to 1500 μM
  effect on transformation efficiency, shoot and rooted plant production: increased transformation efficiency
Low levels of lipoic acid (5 to 100 μM)
  effectiveness in the soybean transformation protocol: not particularly effective
